The text below walks through data of patent publication US10556943B2, “HLA-DR binding peptides and their uses” (priority 2007, dated 2020).

In one assay the target is T1, purified HLA DRB1*0404 (Homo sapiens, UniProt P01903+P01911, A100R/A169T/F76Y/I96L/K127E/L162R/M171V/N62H/P40V/Q125Y/R42H/S133A/S149N/S66Y/V209L/W38E).
T1 construct: MHC molecules utilized were purified from EBV transformed homozygous cell lines or single MHC allele transfected 721.221, C1R, or fibroblast lines; made in house; host or cells: EBV transformed homozygous cell lines or single MHC allele transfected 721.221, C1R, or fibroblast lines
Briefly: HLA-DR radioligand binding inhibition assay, DRB1*0404. The protocol:
(§1) Fifteen distinct HLA-DR molecules were used in quantitative assays to measure the binding of peptides to solubilized HLA-DR molecules. […] Briefly, columns of inactivated Sepharose CL4B and Protein A Sepharose were used as pre-columns. HLA-DR molecules were captured by passage of lysates over LB3.1 monoclonal antibody (anti-HLA-DRA) columns. Antibody columns were washed with 10 mM Tris-HCL, pH8.0 with 1% (v/v) NP-40, followed by PBS containing 0.4% (w/v) n-octylglucoside. […] The pH was reduced to 8.0 and the eluates were concentrated by centrifugation in Centriprep 30 concentrators at 2000 rpm (Amicon, Beverly, Mass.).
(§2) Briefly, 1-10 nM of radiolabeled peptide was co-incubated for 2 days at either room temperature or 37° C. with 1 μM to 1 nM purified HLA-DR molecules in the presence of a cocktail of protease inhibitors. Assays were performed at various pH conditions, ranging from pH 4 to pH 7. […] After incubation, the percentage of HLA-DR-bound radioactivity is determined by capturing HLA-DR/peptide complexes on Optiplates (Packard Instruments, Meriden, Conn.) coated with the LB3.1 antibody and determining bound counts per minute using the TopCount microscintillation counter (Packard Instruments). […] Competitor peptides are tested in 2-4 complete, independent experiments, at concentrations ranging from 30 μg/mL to 300 pg/mL.

The next assay addresses T2, purified HLA DRB1*0405 (Homo sapiens, UniProt P01903+P01911, A100R/A169T/D86S/F76Y/I96L/K127E/L162R/M171V/N62H/P40V/Q125Y/R42H/S133A/S149N/S66Y/V115G/V209L/W38E).
T2 construct: MHC molecules utilized were purified from EBV transformed homozygous cell lines or single MHC allele transfected 721.221, C1R, or fibroblast lines; made in house; host or cells: EBV transformed homozygous cell lines or single MHC allele transfected 721.221, C1R, or fibroblast lines
Briefly: HLA-DR radioligand binding inhibition assay, DRB1*0405. As for the experimental part: as §1, §2

The next assay concerns the target T3, purified HLA DRB3*0101 (Homo sapiens, UniProt P01903+P79483).
T3 construct: MHC molecules utilized were purified from EBV transformed homozygous cell lines or single MHC allele transfected 721.221, C1R, or fibroblast lines; made in house; host or cells: EBV transformed homozygous cell lines or single MHC allele transfected 721.221, C1R, or fibroblast lines
Briefly: HLA-DR radioligand binding inhibition assay, DRB3*0101. As for the experimental part:
as §1, §2

A further assay deals with T4, purified HLA DRB1*0701 (Homo sapiens, UniProt P01903+P01911, A100R/A102G/A103Q/D57E/D86V/E43K/F76Y/K127E/L162R/M171V/P40G/Q125H/Q99D/R33Q/R42Y/R54Q/S133A/S66F/T210M/V115G/Y107V/Y59L/Y89S).
T4 construct: MHC molecules utilized were purified from EBV transformed homozygous cell lines or single MHC allele transfected 721.221, C1R, or fibroblast lines; made in house; host or cells: EBV transformed homozygous cell lines or single MHC allele transfected 721.221, C1R, or fibroblast lines
Briefly: HLA-DR radioligand binding inhibition assay, DRB1*0701. As for the experimental part: (§3) Fifteen distinct HLA-DR molecules were used in quantitative assays to measure the binding of peptides to solubilized HLA-DR molecules. […] Briefly, columns of inactivated Sepharose CL4B and Protein A Sepharose were used as pre-columns. HLA-DR molecules were captured by passage of lysates over LB3.1 monoclonal antibody (anti-HLA-DRA) columns. Antibody columns were washed with 10 mM Tris-HCL, pH8.0 with 1% (v/v) NP-40, followed by PBS containing 0.4% (w/v) n-octylglucoside.
(§4) Briefly, 1-10 nM of radiolabeled peptide was co-incubated for 2 days at either room temperature or 37° C. with 1 μM to 1 nM purified HLA-DR molecules in the presence of a cocktail of protease inhibitors. Assays were performed at various pH conditions, ranging from pH 4 to pH 7. […] After incubation, the percentage of HLA-DR-bound radioactivity is determined by capturing HLA-DR/peptide complexes on Optiplates (Packard Instruments, Meriden, Conn.) coated with the LB3.1 antibody and determining bound counts per minute using the TopCount microscintillation counter (Packard Instruments).

A further assay addresses T5, purified HLA DRB1*1302 (Homo sapiens, UniProt P01903+P01911, A100E/A169T/K41T/L162R/M171V/P40S/Q125H/Q178H/Q39Y/Q99D/R42S/S66N/T262R/V115G/W38E/Y61H).
T5 construct: MHC molecules utilized were purified from EBV transformed homozygous cell lines or single MHC allele transfected 721.221, C1R, or fibroblast lines; made in house; host or cells: EBV transformed homozygous cell lines or single MHC allele transfected 721.221, C1R, or fibroblast lines
The experiment in a line: HLA-DR radioligand binding inhibition assay, DRB1*1302. Conditions: column 6 of second part of Table I. The protocol: as §3, §4

Another assay addresses T6, purified HLA DRB1*1101 (Homo sapiens, UniProt P01903+P01911, A100R/A169T/A87E/I96F/K41T/L162R/M171V/P40S/Q125H/Q178H/Q39Y/Q99D/R42S/S66Y/T262R/V115G/W38E).
T6 construct: MHC molecules utilized were purified from EBV transformed homozygous cell lines or single MHC allele transfected 721.221, C1R, or fibroblast lines; made in house; host or cells: EBV transformed homozygous cell lines or single MHC allele transfected 721.221, C1R, or fibroblast lines
Briefly: HLA-DR radioligand binding inhibition assay, DRB1*1101. As for the experimental part: as §1, §2

The next assay has as its target T7, purified HLA DRB5*0101 (Homo sapiens, UniProt P01903+Q30154).
T7 construct: MHC molecules utilized were purified from EBV transformed homozygous cell lines or single MHC allele transfected 721.221, C1R, or fibroblast lines; made in house; host or cells: EBV transformed homozygous cell lines or single MHC allele transfected 721.221, C1R, or fibroblast lines
Briefly: HLA-DR radioligand binding inhibition assay, DRB5*0101. The protocol:
as §1, §2

Where two headings read alike, the source gives them in different places. Ends that are not written are not given here. Bounds are passed on as bounds.

T5 sequence (P01903 26-254, other chains not shown): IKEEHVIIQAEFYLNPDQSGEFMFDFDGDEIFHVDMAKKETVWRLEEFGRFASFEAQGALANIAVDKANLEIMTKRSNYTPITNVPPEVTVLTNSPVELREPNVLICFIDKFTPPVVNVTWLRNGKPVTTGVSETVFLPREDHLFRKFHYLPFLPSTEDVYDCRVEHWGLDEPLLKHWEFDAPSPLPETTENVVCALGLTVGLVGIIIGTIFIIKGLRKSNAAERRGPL
T6 sequence (P01903 26-254, other chains not shown): as above

The term IC50 denotes the concentration needed to halve the response being measured. With `CSCC[C@H](NC(=O)[C@H](CCCNC(=N)N)NC(=O)[C@H](C)NC(=O)CN)C(=O)N1CCC[C@H]1C(=O)N[C@@H](CS)C(=O)N[C@@H](C)C(=O)N[C@@H](CCC(=O)O)C(=O)N[C@@H](CC(C)C)C(=O)N[C@H](C(=O)N[C@@H](CCCNC(=N)N)C(=O)N[C@@H](CCC(=O)O)C(=O)N1CCC[C@H]1C(=O)NCC(=O)N[C@@H](CS)C(=O)O)C(C)C` [Peptide 9019.0181], the IC50 is 13.1 µM at purified HLA DRB1*0404 (read-out: IC50 to purified HLA DRB1*0404, purified HLA DRB1*0404) and greater than 20 µM at purified HLA DRB1*0405 (read-out: IC50 to purified HLA DRB1*0405, purified HLA DRB1*0405).

In turn, `CC(C)C[C@H](NC(=O)[C@H](CC(=O)O)NC(=O)[C@H](CCCNC(=N)N)NC(=O)[C@@H](N)Cc1c[nH]cn1)C(=O)N[C@@H](C)C(=O)N[C@@H](C)C(=O)N[C@@H](CCCNC(=N)N)C(=O)N[C@@H](CC(N)=O)C(=O)N[C@H](C(=O)N[C@@H](CC(C)C)C(=O)N[C@H](C(=O)N[C@@H](CCCCN)C(=O)N[C@@H](CO)C(=O)N1CCC[C@H]1C(=O)N[C@@H](CC(N)=O)C(=O)O)C(C)C)C(C)C` [Peptide 9019.0085] gave an IC50 at purified HLA DRB1*0405 of 11.2 µM.

For `CSCC[C@H](NC(=O)[C@H](CCCNC(=N)N)NC(=O)[C@H](CO)NC(=O)[C@H](Cc1ccccc1)NC(=O)[C@H](CCC(=O)O)NC(=O)[C@H](CO)NC(=O)[C@@H](NC(=O)[C@H](CC(C)C)NC(=O)[C@H](CCC(=O)O)NC(=O)[C@H](CCCNC(=N)N)NC(=O)[C@H](Cc1ccccc1)NC(=O)[C@H](CCCNC(=N)N)NC(=O)[C@@H]1CCCN1C(=O)[C@@H](N)CCCNC(=N)N)C(C)C)C(=O)N[C@@H](C)C(=O)O` [Peptide 9019.0095], the IC50 on purified HLA DRB3*0101 was greater than 20 µM.

With KELAVFREKVTEQHR [Peptide 9019.0186], the 50% inhibitory concentration (IC50) at purified HLA DRB1*0701 and on purified HLA DRB1*1302 was greater than 20 µM in each case.

The compound `CC[C@H](C)[C@H](NC(=O)[C@H](CCCCN)NC(=O)[C@H](CCC(N)=O)NC(=O)[C@@H](N)CCC(N)=O)C(=O)N[C@@H](CCCNC(=N)N)C(=O)N[C@@H](CCCCN)C(=O)N[C@@H](Cc1ccc(O)cc1)C(=O)N[C@H](C(=O)N[C@@H](CCSC)C(=O)N[C@@H](CCCNC(=N)N)C(=O)N[C@@H](CCCNC(=N)N)C(=O)N[C@@H](CC(C)C)C(=O)N[C@@H](CC(C)C)C(=O)N[C@@H](CCC(N)=O)C(=O)N[C@@H](CCC(=O)O)C(=O)O)[C@@H](C)O` [Peptide 9019.0070] showed an IC50 on purified HLA DRB1*0405 greater than 20 µM.

On to `CC[C@H](C)[C@H](NC(=O)[C@H](CCCCN)NC(=O)[C@H](CCCNC(=N)N)NC(=O)[C@@H](N)CCSC)C(=O)N[C@H](C(=O)N[C@@H](C)C(=O)N[C@H](C(=O)N[C@@H](Cc1c[nH]c2ccccc12)C(=O)N[C@@H](CCSC)C(=O)N[C@@H](CC(C)C)C(=O)N[C@@H](CCC(=O)O)C(=O)N[C@H](C(=O)N[C@@H](CS)C(=O)N[C@@H](CCC(=O)O)C(=O)N[C@@H](CCC(=O)O)C(=O)O)C(C)C)[C@@H](C)O)C(C)C` [Peptide 9019.0151], for which the IC50 on purified HLA DRB1*0404 was greater than 20 µM; at purified HLA DRB1*1101 it was greater than 20 µM; on purified HLA DRB5*0101, 17 µM.
